# According to PMC3961306, “Comparison of the Cancer Gene Targeting and Biochemical Selectivities of All Targeted Kinase Inhibitors Approved for Clinical Use” (PLoS ONE, 2014):
# What was measured:
# Assay in all cases: Kinase profiling in a biochemical assay panel (mobility shift assays and ELISA), %-inhibition at 1 μM; selectivity entropy
# [1] = target: T1, panel of more than 300 wild-type and mutant kinases (313 kinase panel) (Homo sapiens, UniProt Q12852)
# T1 sequence (Q12852 1-859): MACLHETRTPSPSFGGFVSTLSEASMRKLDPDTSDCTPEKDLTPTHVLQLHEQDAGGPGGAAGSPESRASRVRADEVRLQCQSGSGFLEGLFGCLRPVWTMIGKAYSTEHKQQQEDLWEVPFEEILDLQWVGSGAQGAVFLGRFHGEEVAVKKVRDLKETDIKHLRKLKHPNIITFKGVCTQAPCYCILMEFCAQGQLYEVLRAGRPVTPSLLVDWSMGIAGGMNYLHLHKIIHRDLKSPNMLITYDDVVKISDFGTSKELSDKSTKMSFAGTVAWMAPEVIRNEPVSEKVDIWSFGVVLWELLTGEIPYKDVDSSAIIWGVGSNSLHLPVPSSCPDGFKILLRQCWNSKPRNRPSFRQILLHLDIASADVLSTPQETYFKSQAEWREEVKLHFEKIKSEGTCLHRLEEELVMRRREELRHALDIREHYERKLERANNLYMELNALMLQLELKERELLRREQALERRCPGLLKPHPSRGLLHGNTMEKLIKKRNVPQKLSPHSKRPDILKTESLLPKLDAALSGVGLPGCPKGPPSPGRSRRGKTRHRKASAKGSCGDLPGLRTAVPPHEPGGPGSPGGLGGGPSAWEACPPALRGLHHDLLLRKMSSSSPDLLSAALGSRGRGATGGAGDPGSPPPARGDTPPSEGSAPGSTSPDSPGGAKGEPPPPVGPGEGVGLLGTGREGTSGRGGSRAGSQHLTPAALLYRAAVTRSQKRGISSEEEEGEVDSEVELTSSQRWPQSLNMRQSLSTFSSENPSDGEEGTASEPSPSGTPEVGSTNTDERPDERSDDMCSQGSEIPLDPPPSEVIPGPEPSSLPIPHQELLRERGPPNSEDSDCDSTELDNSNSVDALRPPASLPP
# [2] = target: panel of more than 300 wild-type and mutant kinases (313 kinase panel) (Homo sapiens, UniProt Q14680)
# [3] = target: panel of more than 300 wild-type and mutant kinases (313 kinase panel) (Homo sapiens, UniProt Q9BUB5)
# [4] = target: panel of more than 300 wild-type and mutant kinases (313 kinase panel) (Homo sapiens, UniProt P78368); settings: kinase CK1γ2; 1 μM compound
# [5] = target: T2, panel of more than 300 wild-type and mutant kinases (313 kinase panel) (Homo sapiens, UniProt Q8IWQ3); settings: kinase BRSK2; 1 μM compound
# T2 sequence (Q8IWQ3 1-736): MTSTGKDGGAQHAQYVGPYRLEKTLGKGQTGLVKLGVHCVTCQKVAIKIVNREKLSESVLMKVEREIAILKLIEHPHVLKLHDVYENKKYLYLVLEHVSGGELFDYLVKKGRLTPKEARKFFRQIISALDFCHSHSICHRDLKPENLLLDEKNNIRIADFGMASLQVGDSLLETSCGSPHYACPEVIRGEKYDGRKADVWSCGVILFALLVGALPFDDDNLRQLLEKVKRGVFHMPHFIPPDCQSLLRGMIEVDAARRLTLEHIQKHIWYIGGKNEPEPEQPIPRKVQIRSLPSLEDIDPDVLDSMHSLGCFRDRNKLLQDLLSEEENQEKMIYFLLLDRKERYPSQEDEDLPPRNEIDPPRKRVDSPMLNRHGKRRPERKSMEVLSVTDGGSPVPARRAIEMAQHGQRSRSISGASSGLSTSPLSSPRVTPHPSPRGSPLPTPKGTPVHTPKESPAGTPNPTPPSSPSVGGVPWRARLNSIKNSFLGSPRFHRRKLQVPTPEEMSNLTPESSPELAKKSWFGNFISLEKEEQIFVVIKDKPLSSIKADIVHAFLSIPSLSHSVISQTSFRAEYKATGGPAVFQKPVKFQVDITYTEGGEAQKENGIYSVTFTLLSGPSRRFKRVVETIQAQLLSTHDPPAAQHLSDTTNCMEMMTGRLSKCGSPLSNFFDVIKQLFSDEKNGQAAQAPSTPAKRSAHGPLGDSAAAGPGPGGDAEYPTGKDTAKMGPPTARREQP
# [6] = target: T3, panel of more than 300 wild-type and mutant kinases (313 kinase panel) (Homo sapiens, UniProt O14965); settings: 1 μM compound; for %-inhibition, AurA/TPX2: kinase AurA/TPX2; for %-inhibition, AurA: kinase AurA
# T3 sequence (O14965 1-403): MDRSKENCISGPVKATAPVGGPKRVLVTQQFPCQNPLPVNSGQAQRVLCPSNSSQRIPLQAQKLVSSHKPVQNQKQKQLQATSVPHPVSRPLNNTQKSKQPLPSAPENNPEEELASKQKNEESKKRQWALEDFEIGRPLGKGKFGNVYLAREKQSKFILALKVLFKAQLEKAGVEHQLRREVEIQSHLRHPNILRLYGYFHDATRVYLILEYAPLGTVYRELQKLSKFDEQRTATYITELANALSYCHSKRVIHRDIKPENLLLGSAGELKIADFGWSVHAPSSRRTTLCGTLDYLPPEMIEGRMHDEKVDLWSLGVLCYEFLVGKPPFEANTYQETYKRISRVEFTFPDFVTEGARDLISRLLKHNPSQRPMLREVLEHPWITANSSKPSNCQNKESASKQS
# [7] = target: panel of more than 300 wild-type and mutant kinases (313 kinase panel) (Homo sapiens, UniProt P31749); settings: kinase AKT1; 1 μM compound
# Sequence of panel of more than 300 wild-type and mutant kinases (313 kinase panel) (Homo sapiens, UniProt P31749) (P31749 whole entry, change not shown): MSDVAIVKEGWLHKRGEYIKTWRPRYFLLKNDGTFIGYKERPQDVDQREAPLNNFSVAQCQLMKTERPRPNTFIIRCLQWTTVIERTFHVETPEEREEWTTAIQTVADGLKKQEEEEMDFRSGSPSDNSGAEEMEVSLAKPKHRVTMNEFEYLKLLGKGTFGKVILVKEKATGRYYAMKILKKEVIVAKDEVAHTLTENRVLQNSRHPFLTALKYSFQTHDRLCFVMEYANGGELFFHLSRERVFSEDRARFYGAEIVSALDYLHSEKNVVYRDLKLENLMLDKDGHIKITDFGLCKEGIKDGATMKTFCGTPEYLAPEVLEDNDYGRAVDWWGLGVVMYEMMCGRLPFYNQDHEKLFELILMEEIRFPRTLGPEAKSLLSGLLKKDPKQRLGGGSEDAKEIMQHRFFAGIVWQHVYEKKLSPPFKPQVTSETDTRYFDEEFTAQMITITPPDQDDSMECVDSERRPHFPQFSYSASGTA
# Sequence of panel of more than 300 wild-type and mutant kinases (313 kinase panel) (Homo sapiens, UniProt Q9BUB5) (Q9BUB5 whole entry, change not shown): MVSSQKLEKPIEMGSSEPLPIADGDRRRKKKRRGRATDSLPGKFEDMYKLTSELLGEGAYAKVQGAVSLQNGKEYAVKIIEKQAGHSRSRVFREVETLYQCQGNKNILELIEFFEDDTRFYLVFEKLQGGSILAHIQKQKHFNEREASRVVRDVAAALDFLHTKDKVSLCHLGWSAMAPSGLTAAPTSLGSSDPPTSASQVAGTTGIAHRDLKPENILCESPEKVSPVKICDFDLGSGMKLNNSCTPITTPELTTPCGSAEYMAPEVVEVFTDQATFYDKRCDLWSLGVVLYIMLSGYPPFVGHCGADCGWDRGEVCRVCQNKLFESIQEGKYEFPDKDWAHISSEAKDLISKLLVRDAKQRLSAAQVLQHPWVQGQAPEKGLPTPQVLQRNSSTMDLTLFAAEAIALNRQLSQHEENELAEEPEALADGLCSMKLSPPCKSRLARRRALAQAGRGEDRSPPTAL
SMILES,"%-inhibition of DLK ([1]; kinase DLK, compound at 1 μM) [%]","%-inhibition of MELK ([2]; kinase MELK, compound at 1 μM) [%]","%-inhibition of MNK1 ([3]; kinase MNK1, 1 μM) [%]","%-inhibition, CK1γ2 [4] [%]","%-inhibition, BRSK2 [5] [%]","%-inhibition, AurA/TPX2 [6] [%]","%-inhibition, AurA [6] [%]","%-inhibition, AKT1 [7] [%]",%-inhibition of DLK ([1]; 1 µM) [%],%-inhibition of MELK ([2]; 1 µM) [%],%-inhibition of MNK1 ([3]; 1 µM) [%]
CO[C@H]1C[C@@H]2CC[C@@H](C)[C@@](O)(O2)C(=O)C(=O)N2CCCC[C@H]2C(=O)O[C@H]([C@H](C)C[C@@H]2CC[C@@H](OCCO)[C@H](OC)C2)CC(=O)[C@H](C)/C=C(\C)[C@@H](O)[C@@H](OC)C(=O)[C@H](C)C[C@H](C)/C=C/C=C/C=C/1C [everolimus],-5,-3.33,-0.485,-2.3,-0.919,-4.51,3.74,-7,,,
O=S(=O)(c1cccc2cnccc12)N1CCCNCC1 [fasudil],-11,25,15,18,6,-1.11,-2,4.44,,,
CS(=O)(=O)CCNCc1ccc(-c2ccc3ncnc(Nc4ccc(OCc5cccc(F)c5)c(Cl)c4)c3c2)o1 [lapatinib],-3.44,-3.71,11,-1.22,3.58,-10,5.59,2.63,,,
Cc1cn(-c2cc(NC(=O)c3ccc(C)c(Nc4nccc(-c5cccnc5)n4)c3)cc(C(F)(F)F)c2)cn1 [nilotinib],,,,5.57,-0.27,-9,-5.43,11,1.43,23,-1.26
CNC(=O)c1cc(Oc2ccc(NC(=O)Nc3ccc(Cl)c(C(F)(F)F)c3)c(F)c2)ccn1 [regorafenib],-13,-4.52,7,-3,-15,-4,7,-5.68,,,
N#CC[C@H](C1CCCC1)n1cc(-c2ncnc3[nH]ccc23)cn1 [ruxolitinib],,34,8.57,-0.393,-12,63,,-5,-0.311,,
CO[C@H]1C[C@@H]2CC[C@@H](C)[C@@](O)(O2)C(=O)C(=O)N2CCCC[C@H]2C(=O)O[C@H]([C@H](C)C[C@@H]2CC[C@@H](OC(=O)C(C)(CO)CO)[C@H](OC)C2)CC(=O)[C@H](C)/C=C(\C)[C@@H](O)[C@@H](OC)C(=O)[C@H](C)C[C@H](C)/C=C/C=C/C=C/1C [temsirolimus],-6,-1.66,-19,-3.32,-9,-3.42,-12,-4,,,
CC(=O)Nc1cccc(-n2c(=O)n(C3CC3)c(=O)c3c(Nc4ccc(I)cc4F)n(C)c(=O)c(C)c32)c1 [trametinib],-2.85,-0.588,-3,-2.15,5.38,-5.37,-2,-3,,,
CCCS(=O)(=O)Nc1ccc(F)c(C(=O)c2c[nH]c3ncc(-c4ccc(Cl)cc4)cc23)c1F [vemurafenib],8,4,23,0.506,-6,-2.59,23,-4.52,,,
